# Assay results reported in paper PMC10673995, “Discovery of a novel cardiac-specific myosin modulator using artificial intelligence-based virtual screening” (Nature Communications, 2023).
# Tested on: isolated Langendorff-perfused rat hearts
# Assay: Langendorff-perfused rat hearts, haemodynamic parameters
# Settings: for LVSP representative trace, OFF: after washout; for LVSP representative trace, ON: during perfusion with compound
# Experimental: Next, we tested for the functional effects of F10 in isolated Langendorff-perfused rat hearts. Hearts were initially stabilized in modified Krebs-Henseleit (KH) solution for about 25–30 min and subsequently perfused with KH solution containing 20 μmol L^−1 F10 for 5 mins to reach a new steady state.
# Rat hearts were Langendorff-perfused as described previously. Briefly, Wistar rats (Rattus norvegicus, male, 200–250 g, 7 weeks old) were anesthetized by injection of 0.9 mL sodium pentobarbitone 20% (w/v). […] The aorta was cannulated and secured with sutures (Mersilk 3‐0; Ethicon, Somerville, NJ, USA). Hearts were perfused at a constant perfusion pressure of 70 ± 2 mmHg using a peristaltic pump (Gilson Minipuls 4, Middleton, WI, USA) and a feedback control system (STH Pump Controller; AD Instruments, Oxford, UK). […] A fluid‐filled balloon, attached to a pressure transducer, was inserted into the left ventricle and inflated to give an end‐diastolic pressure between 3 and 8 mmHg. Left ventricular pressure (LVP), perfusion pressure, coronary flow and arterial and venous oxygen tensions were recorded using a PowerLab recorder and LabChart 8.0 software (ADInstruments). Functional parameters were averaged for ∼80 cardiac cycles at 5 min intervals.
compound,measurement,setting,value
CC(C)n1c(=O)cc(N[C@@H](C)c2ccccc2)[nH]c1=O [Mavacamten],"LVSP representative trace, OFF",t 70 s,102.076 mmHg
same,"LVSP representative trace, OFF",t 80 s,102.473 mmHg
same,"LVSP representative trace, OFF",t 90 s,103.301 mmHg
same,"LVSP representative trace, OFF",t 100 s,104.178 mmHg
same,"LVSP representative trace, OFF",t 110 s,104.015 mmHg
same,"LVSP representative trace, OFF",t 120 s,104.172 mmHg
same,"LVSP representative trace, OFF",t 130 s,104.333 mmHg
same,"LVSP representative trace, OFF",t 140 s,104.863 mmHg
same,"LVSP representative trace, OFF",t 150 s,105.62 mmHg
same,"LVSP representative trace, OFF",t 160 s,106.146 mmHg
same,"LVSP representative trace, OFF",t 170 s,107.035 mmHg
same,"LVSP representative trace, OFF",t 180 s,107.188 mmHg
same,"LVSP representative trace, OFF",t 190 s,108.073 mmHg
same,"LVSP representative trace, OFF",t 200 s,108.759 mmHg
same,"LVSP representative trace, OFF",t 210 s,109.171 mmHg
same,"LVSP representative trace, OFF",t 220 s,109.899 mmHg
same,"LVSP representative trace, OFF",t 230 s,110.383 mmHg
same,"LVSP representative trace, OFF",t 240 s,111.699 mmHg
same,"LVSP representative trace, OFF",t 250 s,111.591 mmHg
same,"LVSP representative trace, OFF",t 260 s,112.354 mmHg
same,"LVSP representative trace, OFF",t 270 s,113.909 mmHg
same,"LVSP representative trace, OFF",t 280 s,115.189 mmHg
same,"LVSP representative trace, OFF",t 290 s,115.643 mmHg
same,"LVSP representative trace, OFF",t 300 s,115.694 mmHg
same,"LVSP representative trace, OFF",t 310 s,117.014 mmHg
same,"LVSP representative trace, OFF",t 320 s,117.329 mmHg
same,"LVSP representative trace, OFF",t 330 s,117.56 mmHg
same,"LVSP representative trace, OFF",t 340 s,118.377 mmHg
same,"LVSP representative trace, OFF",t 350 s,118.795 mmHg
same,"LVSP representative trace, OFF",t 360 s,118.884 mmHg
same,"LVSP representative trace, OFF",t 370 s,120.043 mmHg
same,"LVSP representative trace, OFF",t 380 s,121.007 mmHg
same,"LVSP representative trace, OFF",t 390 s,121.543 mmHg
same,"LVSP representative trace, OFF",t 400 s,122.385 mmHg
same,"LVSP representative trace, ON",t 0 s,185.674 mmHg
same,"LVSP representative trace, ON",t 10 s,179.044 mmHg
same,"LVSP representative trace, ON",t 20 s,172.645 mmHg
same,"LVSP representative trace, ON",t 30 s,172.645 mmHg
same,"LVSP representative trace, ON",t 40 s,172.645 mmHg
same,"LVSP representative trace, ON",t 50 s,163.036 mmHg
same,"LVSP representative trace, ON",t 60 s,160.436 mmHg
same,"LVSP representative trace, ON",t 70 s,155.482 mmHg
same,"LVSP representative trace, ON",t 80 s,149.519 mmHg
same,"LVSP representative trace, ON",t 90 s,144.889 mmHg
same,"LVSP representative trace, ON",t 100 s,139.74 mmHg
same,"LVSP representative trace, ON",t 110 s,137.111 mmHg
same,"LVSP representative trace, ON",t 120 s,131.856 mmHg
same,"LVSP representative trace, ON",t 130 s,128.177 mmHg
same,"LVSP representative trace, ON",t 140 s,123.963 mmHg
same,"LVSP representative trace, ON",t 150 s,121.031 mmHg
same,"LVSP representative trace, ON",t 160 s,117.5 mmHg
same,"LVSP representative trace, ON",t 170 s,114.951 mmHg
same,"LVSP representative trace, ON",t 180 s,110.93 mmHg
same,"LVSP representative trace, ON",t 190 s,108.804 mmHg
same,"LVSP representative trace, ON",t 200 s,106.216 mmHg
same,"LVSP representative trace, ON",t 210 s,103.076 mmHg
same,"LVSP representative trace, ON",t 220 s,101.63 mmHg
same,"LVSP representative trace, ON",t 230 s,99.0368 mmHg
same,"LVSP representative trace, ON",t 240 s,96.0294 mmHg
same,"LVSP representative trace, ON",t 250 s,94.9632 mmHg
same,"LVSP representative trace, ON",t 260 s,93.4811 mmHg
same,"LVSP representative trace, ON",t 270 s,90.0331 mmHg
same,"LVSP representative trace, ON",t 280 s,88.9689 mmHg
